The values that follow are results of earlier work, collected in patent US7255813B2, “NADH/NADPH-containing compound” (Nutropia Ernahrungsmedizinische Forschungs GmbH, priority 2002, dated 2007).

For the series the following is noted: versus synthetic tocopherols.

With tocotrienol, the “antioxidative potential, times higher than that of synthetic tocopherols” value is recorded as 50 to 1000 times.
